Results as given in PubChem BioAssay AID330 (DTP/NCI, 2004).
Values joined by “and” are separate entries in the source; they are usually repeats but may differ in a detail not shown here. Identical values can stand only once. Toxic doses and inconclusive results are not listed. Rule for the calls: active = survival T/C of 150% or more; inactive = T/C below 125% in these data.

System: P388 leukemia ip, CD2F1 mice, survival T/C
Assay: NCI In Vivo Anticancer Drug Screen. Data for tumor model P388 Leukemia (intraperitoneal) in CD2F1 (CDF1) mice
Conditions: endpoint: median survival time, higher = longer survival
In short: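 Mice carrying the transplanted tumor received test compound or vehicle. Survival was recorded in each group, and the value is the treated-group measurement divided by that of the vehicle-treated control group.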

[1] = dose: 50.0 mg/kg/injection, schedule: Q01DX009 (ip), vehicle: saline with Tween-80
[2] = dose: 100.0 mg/kg/injection, schedule: Q01DX009 (ip), vehicle: saline with Tween-80
[3] = dose: 200.0 mg/kg/injection, schedule: Q01DX009 (ip), vehicle: saline with Tween-80
[4] = dose: 50.0 mg/kg/injection, schedule: Q01DX005 (ip), vehicle: saline with Tween-80
[5] = dose: 100.0 mg/kg/injection, schedule: Q01DX005 (ip), vehicle: saline with Tween-80
[6] = dose: 200.0 mg/kg/injection, schedule: Q01DX005 (ip), vehicle: saline with Tween-80
[7] = dose: 12.5 mg/kg/injection, schedule: Q01DX009 (ip), vehicle: other
[8] = dose: 25.0 mg/kg/injection, schedule: Q01DX009 (ip), vehicle: other
[9] = dose: 50.0 mg/kg/injection, schedule: Q01DX009 (ip), vehicle: other
[10] = dose: 200.0 mg/kg/injection, schedule: Q01DX009 (ip), vehicle: other
[11] = dose: 100.0 mg/kg/injection, schedule: Q04DX003 (ip), vehicle: saline
[12] = dose: 100.0 mg/kg/injection, schedule: Q01DX009 (ip), vehicle: other
[13] = dose: 60.0 mg/kg/injection, schedule: Q01DX005 (ip), vehicle: saline with Tween-80
[14] = dose: 120.0 mg/kg/injection, schedule: Q01DX005 (ip), vehicle: saline with Tween-80
[15] = dose: 240.0 mg/kg/injection, schedule: Q01DX005 (ip), vehicle: saline with Tween-80
[16] = dose: 100.0 mg/kg/injection, schedule: Q04DX003 (ip), vehicle: Klucel (hydroxypropylcellulose) (HPC)
[17] = dose: 200.0 mg/kg/injection, schedule: Q04DX003 (ip), vehicle: Klucel (hydroxypropylcellulose) (HPC)
[18] = dose: 200.0 mg/kg/injection, schedule: Q04DX003 (ip), vehicle: saline
[19] = dose: 400.0 mg/kg/injection, schedule: Q04DX003 (ip), vehicle: saline

Measured: T/C

CSc1nnc(N)s1
inactive: [1] 106 % of control | [2] 93 % of control | [3] 100 % of control

CC(=O)N(C)c1ccc2c(c1)C(=O)c1ccccc1-2
inactive: [4] 102 % of control | [5] 95 % of control | [6] 92 % of control

COc1cc2c(cc1C(C)c1ccc(OCC(=O)O)cc1)OCO2 (centres undefined)
inactive: dose: 50.0 mg/kg/injection, schedule: Q01DX005 (ip), vehicle: distilled water + Tween-80 96 % of control | dose: 100.0 mg/kg/injection, schedule: Q01DX005 (ip), vehicle: distilled water + Tween-80 105 % of control | dose: 200.0 mg/kg/injection, schedule: Q01DX005 (ip), vehicle: distilled water + Tween-80 100 % of control

COc1ccc2cc3n(c(=Nc4ccccc4)c2c1OC)CCc1cc2c(cc1-3)OCO2
inactive: dose: 0.63 mg/kg/injection, schedule: Q01DX009 (ip), vehicle: water 97 % of control | dose: 1.25 mg/kg/injection, schedule: Q01DX009 (ip), vehicle: water 93 % of control | dose: 2.5 mg/kg/injection, schedule: Q01DX009 (ip), vehicle: water 101 % of control | dose: 5.0 mg/kg/injection, schedule: Q01DX009 (ip), vehicle: water 124 % of control | dose: 10.0 mg/kg/injection, schedule: Q01DX009 (ip), vehicle: water 99 % of control | dose: 20.0 mg/kg/injection, schedule: Q01DX009 (ip), vehicle: water 101 % of control

COc1cc2cccc(O)c2cc1OC
inactive: [7] 90 % of control | [8] 106 % of control | [9] 92 % of control | [10] 90 % of control

O=C(O)C(=O)O.OO.OO.OO.[Nb]
inactive: dose: 100.0 mg/kg/injection, schedule: Q01DX009 (ip), vehicle: saline 123 % of control | [11] 100 % of control

COc1ccccc1/C=C/C1=C(C)CCC(c2ccccc2OC)C1C (centres undefined)
inactive: [4] 90 % of control | [5] 89 % of control | [6] 89 % of control

COc1ccc2cc1Oc1ccc(cc1)C[C@H]1c3cc(c(OC)cc3CCN1C)Oc1c(OC)c(OC)cc3c1[C@H](C2)N(C)CC3
inactive: [7] 94 % of control and 95 % of control | [8] 100 % of control and 97 % of control | dose: 25.0 mg/kg/injection, schedule: Q04DX003 (ip), vehicle: suspension in saline 98 % of control | [9] 100 % of control and 97 % of control | dose: 50.0 mg/kg/injection, schedule: Q04DX003 (ip), vehicle: suspension in saline 88 % of control | [12] 103 % of control | dose: 100.0 mg/kg/injection, schedule: Q04DX003 (ip), vehicle: suspension in saline 89 % of control | dose: 200.0 mg/kg/injection, schedule: Q04DX003 (ip), vehicle: suspension in saline 87 % of control

COc1cc(C(Nc2ncccn2)c2cc3c(cc2OC(C)=O)OCO3)cc(OC)c1OC(C)=O (centres undefined)
inactive: [13] 105 % of control | [14] 100 % of control | [15] 99 % of control

O=C(O)C(O)C(O)C(O)C(O)CO.[Mn] (centres undefined)
inactive: [1] 113 % of control

CCCCOCc1c(-c2ccccc2)sc2ccccc2c1=O
inactive: [4] 97 % of control | [5] 102 % of control | [6] 100 % of control

O=C(/C=C/c1ccccc1)NC1C=Nc2ccccc2NC1=O (centres undefined)
inactive: [13] 92 % of control | [14] 92 % of control | [15] 99 % of control

COc1cccc2cc3c(cc12)C(=O)C(C)=C(C)C3=O
inactive: [16] 94 % of control | [17] 97 % of control | dose: 400.0 mg/kg/injection, schedule: Q04DX003 (ip), vehicle: Klucel (hydroxypropylcellulose) (HPC) 109 % of control

O=S(=O)(O)c1ccc(/C2=c3\cc/c([n-]3)=C(\c3ccc(S(=O)(=O)O)cc3)c3ccc([n-]3)/C(c3ccc(S(=O)(=O)O)cc3)=c3/cc/c([n-]3)=C(\c3ccc(S(=O)(=O)O)cc3)c3ccc2[n-]3)cc1.[Zn]
inactive: dose: 0.98 mg/kg/injection, schedule: Q01DX009 (ip), vehicle: saline with Tween-80 103 % of control and 111 % of control | dose: 1.95 mg/kg/injection, schedule: Q01DX009 (ip), vehicle: saline with Tween-80 100 % of control and 104 % of control | dose: 3.9 mg/kg/injection, schedule: Q01DX009 (ip), vehicle: saline with Tween-80 99 % of control and 114 % of control | dose: 7.8 mg/kg/injection, schedule: Q01DX009 (ip), vehicle: saline with Tween-80 114 % of control | dose: 15.62 mg/kg/injection, schedule: Q01DX009 (ip), vehicle: saline with Tween-80 100 % of control and 112 % of control

CCCC/C=C\CCCCCCCCCC1=C(O)C(=O)C=C(OC)C1=O
inactive: dose: 25.5 mg/kg/injection, schedule: Q01DX005 (ip), vehicle: Klucel (hydroxypropylcellulose) (HPC) 116 % of control

NC(N)=Nc1nc2ccccc2o1
inactive: dose: 50.0 mg/kg/injection, schedule: Q04DX003 (ip), vehicle: Klucel (hydroxypropylcellulose) (HPC) 90 % of control | [16] 100 % of control | [17] 100 % of control

c1ccc(-c2nn(-c3ccccc3)[n+](-c3ccccc3-c3ccccc3)n2)cc1
inactive: dose: 5.0 mg/kg/injection, schedule: Q01DX009 (ip), vehicle: saline 109 % of control and 114 % of control | dose: 10.0 mg/kg/injection, schedule: Q01DX009 (ip), vehicle: saline 120 % of control | dose: 20.0 mg/kg/injection, schedule: Q01DX009 (ip), vehicle: saline 121 % of control

CC(C)=CCC/C(C)=C/COc1cc(O)c2c(O)c3c(cc2c1)CC(C)(O)CC3=O (centres undefined)
inactive: dose: 6.25 mg/kg/injection, schedule: Q01DX009 (ip), vehicle: saline + Tween-80 + alcohol 107 % of control | dose: 12.5 mg/kg/injection, schedule: Q01DX009 (ip), vehicle: saline + Tween-80 + alcohol 105 % of control | dose: 25.0 mg/kg/injection, schedule: Q01DX009 (ip), vehicle: saline + Tween-80 + alcohol 107 % of control

O=C(O)CC[S-].[Ag+]
inactive: [11] 100 % of control | [18] 100 % of control | [19] 95 % of control

O=C(Oc1ccccc1)N1CCCCC1
inactive: dose: 12.5 mg/kg/injection, schedule: Q01DX001 (ip), vehicle: saline with Tween-80 95 % of control | dose: 25.0 mg/kg/injection, schedule: Q01DX001 (ip), vehicle: saline with Tween-80 99 % of control | dose: 50.0 mg/kg/injection, schedule: Q01DX001 (ip), vehicle: saline with Tween-80 106 % of control | dose: 100.0 mg/kg/injection, schedule: Q01DX001 (ip), vehicle: saline with Tween-80 104 % of control

COc1cc(Br)c(C(=O)Nc2ccccc2)cc1OC
inactive: [8] 97 % of control | [9] 97 % of control | [12] 91 % of control | [10] 97 % of control | dose: 400.0 mg/kg/injection, schedule: Q01DX009 (ip), vehicle: other 97 % of control

CCCCCCNc1nc(NCCCCCC)c2[nH]c(NCCCCCC)nc2n1
inactive: [4] 122 % of control

C/C(=N\O)C(C)(O)C(C)(C)C (centres undefined)
inactive: dose: 25.0 mg/kg/injection, schedule: Q01DX009 (ip), vehicle: saline with Tween-80 103 % of control | [1] 86 % of control | [2] 93 % of control

N#Cc1[nH]nc2[nH]c(=S)[nH]c(=S)c12
inactive: dose: 100.0 mg/kg/injection, schedule: Q04DX002 (ip), vehicle: water 113 % of control | dose: 200.0 mg/kg/injection, schedule: Q04DX002 (ip), vehicle: water 110 % of control | dose: 400.0 mg/kg/injection, schedule: Q04DX002 (ip), vehicle: water 102 % of control

CCCn1c(C)nc2c(N)cc(Cl)cc21
inactive: dose: 12.5 mg/kg/injection, schedule: Q01DX005 (ip), vehicle: Klucel (hydroxypropylcellulose) (HPC) 99 % of control | dose: 25.0 mg/kg/injection, schedule: Q01DX005 (ip), vehicle: Klucel (hydroxypropylcellulose) (HPC) 95 % of control | dose: 50.0 mg/kg/injection, schedule: Q01DX005 (ip), vehicle: Klucel (hydroxypropylcellulose) (HPC) 103 % of control | dose: 100.0 mg/kg/injection, schedule: Q01DX005 (ip), vehicle: Klucel (hydroxypropylcellulose) (HPC) 105 % of control

O=C(O)CC(O)CCCCCO (centres undefined)
inactive: [1] 110 % of control | [2] 110 % of control | [11] 106 % of control | [3] 100 % of control | [18] 113 % of control | [19] 100 % of control
